Data published in article PMC5913645, “Methyl phenlactonoates are efficient strigolactone analogs with simple structure” (Journal of Experimental Botany, 2017).
“Also recorded” adds a separate entry of the source. Each block holds one compound with its values, some of them ahead of it.

Assays:
[1] = test system: parasite seed; details: ref Fukui et al., 2013; cited from earlier work
[2] = Chemical stability in aqueous solution (UHPLC); format: physicochemical; details: aqueous solution pH 6.8, 21 °C, 50 μg ml^−1, monitored at 24 h intervals up to 3 weeks
Experimental: Aqueous solutions of MPs (50 μg ml^−1; pH 6.8) were incubated at 21 °C in amber HPLC vials (adapted from [de Saint Germain et al., 2016]). For sample preparation, 50 μl of an acetone solution (1 mg ml^−1) was diluted to the final concentration with methanol (425 μl), water (500 μl) and 25 μl of 1-indanol (1.0 mg ml^−1 solution in acetone) as internal standard. […] Compounds eluted from the column were detected with a diode array detector. The relative quantity of remaining (non-degraded) product was determined by comparison with the internal standard. Stability was monitored at 24 h intervals up to 3 weeks.

[3] = test system: S. hermonthica seeds; experiment: Striga hermonthica seed germination bioassay; format: in vivo; details: for EC50: Striga hermonthica, concentrations 10^–5 to 10^–12 M; for germination activity, order among the chlorophenyl compounds: species not given
Experimental: Parasitic weed seeds’ (S. hermonthica and P. ramosa) germination activity was studied as described previously ([Jamil et al., 2012]). Six pre-conditioned seed discs were placed in a 90 mm Petri dish containing a filter paper ring wetted with 0.9 ml sterile MilliQ water. Then 50 μl of SL analog solution (10^–5–10^–12 M) was applied on each of the six discs, for each concentration. GR24 solutions with equal concentrations and sterile MilliQ water were included as a positive and negative control, respectively. After application, seeds of S. hermonthica and P. ramosa were incubated in dark at 30 °C for 2 d and at 25 °C for 4 d, respectively. Germination (seeds with radicle emerging through the seed coat) was scored under a binocular microscope, and germination rate (%) was calculated. Statistical analyses were carried out using the statistical software package R (version 3.2.2). Dose–response curves and half-maximum effective concentrations (EC50) were calculated to determine optimum amount of MPs. The synthetic strigolactone analog GR24 was used as reference to estimate efficacy of selected compounds. EC50 and estimated response were calculated using the drc package (https://cran.r-project.org/web/packages/drc/) with a four parameter logistic curve (dose–response curve) ([Ritz and Streibig, 2005]).

[4] = test system: P. ramosa seeds; experiment: P. ramosa seed germination bioassay; format: in vivo, Phelipanche ramosa; details: 1.0 μM
Experimental: Parasitic weed seeds’ (S. hermonthica and P. ramosa) germination activity was studied as described previously ([Jamil et al., 2012]). Six pre-conditioned seed discs were placed in a 90 mm Petri dish containing a filter paper ring wetted with 0.9 ml sterile MilliQ water. Then 50 μl of SL analog solution (10^–5–10^–12 M) was applied on each of the six discs, for each concentration. GR24 solutions with equal concentrations and sterile MilliQ water were included as a positive and negative control, respectively. After application, seeds of S. hermonthica and P. ramosa were incubated in dark at 30 °C for 2 d and at 25 °C for 4 d, respectively. Germination (seeds with radicle emerging through the seed coat) was scored under a binocular microscope, and germination rate (%) was calculated.

[5] = test system: rice d10 mutant; experiment: Rice micro tillering bioassay, d10 mutant; format: in vivo; details: 2.5 μM
Experimental: Rice seeds (WT, d3, d10) were surface-sterilized by washing with 70% ethanol for 1 min and then with 2.5% sodium hypochlorite for 15 min. Seeds were then rinsed thoroughly with sterile MilliQ water and incubated in water for 2 d at 30 °C in the dark. Pre-germinated seeds were transferred to filter papers containing half-strength MS medium in 90 mm Petri dishes and incubated at 30 °C under fluorescent white light (130–180 μmol m^−2 s^−1) for 1 week. Seven-day-old seedlings were transferred to 50 ml falcon tubes (one seedling per tube) containing modified half-strength Hoagland nutrient solution and grown in greenhouse. Plants were treated with MPs at 2.5 μM to 2.5 × 10^–7 μM, using GR24 as positive control. The compounds were applied six times, twice a week. Number of tillers per plant, plant height and fresh biomass were measured at final harvest.
Statistical analyses were carried out using the statistical software package R (version 3.2.2). Dose–response curves and half-maximum effective concentrations (EC50) were calculated to determine optimum amount of MPs. The synthetic strigolactone analog GR24 was used as reference to estimate efficacy of selected compounds. EC50 and estimated response were calculated using the drc package (https://cran.r-project.org/web/packages/drc/) with a four parameter logistic curve (dose–response curve) ([Ritz and Streibig, 2005]).

[6] = test system: Arabidopsis seedlings; experiment: Arabidopsis lateral root density; format: in vivo; details: 1.0 μM, 8-day-old seedlings
Experimental: Sterilized Arabidopsis seeds were sown on half-strength MS (with 0.5% sucrose+1% agar, 0.5 g l^−1 MES, pH 5.7) plates supplemented with GR24 or MPs (at 1.0 μM). Plates were stored at 4 °C in darkness for 3 d and then vertically grown at 22 °C in a Percival incubator under long day condition (16 h at 22 °C/8 h at 16 °C day/night, 60% relative humidity, 60–70 μmol m^−2 s^−1 white light) for 8 d. For determining the effect on lateral root density and primary root length, at least 30 seedlings were measured using ImageJ software after scanning roots.

[7] = test system: Arabidopsis seedlings; experiment: Arabidopsis hypocotyl elongation assay; format: in vivo; details: 1.0 μM, continuous red light
Experimental: Sterilized Arabidopsis seeds were sown on half-strength MS (with 0.5% sucrose+1% agar, 0.5 g l^−1 MES, pH 5.7) plates supplemented with MPs or GR24 (at 1.0 μM). Plates were stored at 4 °C in darkness for 3 d. To initiate germination, plates were exposed to continuous white light for 24 h, then transferred to continuous monochromatic red light (20 μmol m^−2 s^−1, 22 °C) conditions for another 4 d. For hypocotyl length measurement, at least 30 seedlings were measured using the freely available ImageJ software (http://rsbweb.nih.gov/ij/) after taking digital photographs. A monochromatic red light source was applied as described previously ([Wu and Yang, 2010]). Light flow rates were measured using a Li250 quantum photometer (Li-Cor, Lincoln, NE, USA).

[8] = test system: S. hermonthica seeds; details: cited from earlier work
[9] = test system: P. ramosa seeds; set-up: method as in Wigchert et al., 1999; details: ref Wigchert et al., 1999; cited from earlier work
[10] = test system: Arabidopsis seedlings; set-up: method as in Jia et al. (2016); details: ref Jia et al., 2016; cited from earlier work

SMILES: CC1=CC(Oc2ccc(Br)cc2)OC1=O (centres unmarked) [4-Br-debranone]
activity in inducing parasite seed germination [1]: moderate activity

SMILES: COC(=O)/C(=C/OC1C=C(C)C(=O)O1)c1ccccc1[N+](=O)[O-] (centres unmarked) [MP2]
stability in comparison with GR24 [2]: more stable than GR24
EC50 [3]: 32 nM
P. ramosa germination activity [4]: much higher activity
growth, senescence symptoms and biomass of rice seedlings [5]: stunted the growth and caused senescence symptoms

stability in comparison with GR24 [2]: more stable than GR24
SMILES: COC(=O)/C(=C/OC1C=C(C)C(=O)O1)c1ccc(C)cc1 (centres unmarked) [MP4]

SMILES: CC1=CC(O/C=C2/C(=O)OCc3ccccc32)OC1=O (centres unmarked) [MP5]
stability in comparison with GR24 [2]: more stable than GR24; also recorded: most stable compound

SMILES: COC(=O)/C(=C/OC1C=C(C)C(=O)O1)c1cccc(F)c1 (centres unmarked) [MP6]
growth, senescence symptoms and biomass of rice seedlings [5]: stunted the growth and caused senescence symptoms

stability in comparison with GR24 [2]: very similar to that of GR24
SMILES: COC(=O)/C(=C/OC1C=C(C)C(=O)O1)c1cccc(Cl)c1 (centres unmarked) [MP8]
germination activity, order among the chlorophenyl compounds [3]: highest germination activity with MP7 (Cl in para position) followed by MP9 (ortho position) and MP8 (meta position)
P. ramosa germination activity [4]: much higher activity
reduction of lateral root number/density [6]: slightly more active than GR24

SMILES: COC(=O)/C(=C/OC1C=C(C)C(=O)O1)c1ccccc1Cl (centres unmarked) [MP9]
stability in comparison with GR24 [2]: very similar to that of GR24
germination activity, order among the chlorophenyl compounds [3]: highest germination activity with MP7 (Cl in para position) followed by MP9 (ortho position) and MP8 (meta position)
growth, senescence symptoms and biomass of rice seedlings [5]: stunted the growth and caused senescence symptoms

SMILES: COC(=O)/C(=C\OC1C=C(C)C(=O)O1)c1ccccc1Cl (centres unmarked) [MP10]
stability in comparison with GR24 [2]: more stable than GR24
growth, senescence symptoms and biomass of rice seedlings [5]: stunted the growth and caused senescence symptoms

stability in comparison with GR24 [2]: very similar to that of GR24
SMILES: COC(=O)C(=COC1C=C(C)C(=O)O1)c1cccc2ccccc12 (centres unmarked) [MP11]
S. hermonthica germination rate ([3]; 1.0 μM): 32%
EC50 [3]: 1700 nM

SMILES: CC1=CC(O/C=C(/C=O)c2ccc([N+](=O)[O-])cc2)OC1=O (centres unmarked) [MP12, (E)-3-(4-methyl-5-oxo-2,5-dihydrofuran-2-yloxy)-2-(4-nitrophenyl)acrylaldehyde]
stability in comparison with GR24 [2]: quite unstable and not detectable even after only 24 h
inhibition of hypocotyl growth [7]: Apart from MP12 and MP15, all MPs showed significant inhibition

stability in comparison with GR24 [2]: very similar to that of GR24
SMILES: COC(=O)/C(=C/OC1C=C(C)C(=O)O1)c1ccc(OC)cc1 (centres unmarked) [MP14]

stability in comparison with GR24 [2]: slightly less stable than GR24
SMILES: COC(=O)/C(=C/OC1C=C(C)C(=O)O1)c1ccc(O)cc1 (centres unmarked) [MP15]
inhibition of hypocotyl growth [7]: Apart from MP12 and MP15, all MPs showed significant inhibition

SMILES: COC(=O)/C(=C/O[C@H]1C=C(C)C(=O)O1)N1C(=O)c2ccccc2C1=O [Nijmegen-1]
EC50 for S. hermonthica germination relative to GR24 ([8]; ref Wigchert et al., 1999): three orders of magnitude higher than GR24
seed germination in P. ramosa [9]: potent inducer

SMILES: CC1=CC(O/C=C(/C)c2ccc([N+](=O)[O-])cc2)OC1=O (centres unmarked) [nitro-phenlactone]
activity in stimulating S. hermonthica germination ([8]; ref Jia et al., 2016): very weak activity
effect on lateral root density [10]: did not affect lateral root density
